Assay results taken from patent US20160279187A1, “CALPAIN INHIBITORS FOR IBD AND COLORECTAL CANCER TREATMENT” (UNIVERSITY OF HAWAII, priority 2013, published 2016).
Where a SMILES comes first, the peptide text is derived from it. The star is where a group is joined. Cbz = O=C(OCc1ccccc1)*; CH2F = FC*

Assays:
[1] = system: Akt phosphorylation / FAK cleavage in colon cancer cells; test: other m-calpain regulated pathways in colon cancer cells (Akt, FAK); assay type: cell-based
[2] = system: cytokine mRNAs in colon tissues; test: AOM/DSS model, colon cytokine mRNA by real-time PCR; assay type: in vivo, mice; settings: day 63, vs vehicle control
Protocol: Mice subjected to the AOM/DSS model were sacrificed on day 63 and colons removed and assessed by histology and cytokine mRNA analyses. […] To further assess inflammation, mouse colon tissues were harvested at the end of the chronic colitis model and mRNA levels for different cytokines measured by real-time PCR.
(§1) To determine if a similar mechanism may be contributing to the effect of the calpain-2 inhibition in the DSS model of colitis, macrophages were analyzed for NFκB activation and inflammatory cytokine secretion. Bone marrow derived macrophages were primed […] with TNFα (20 ng/ml) and activated with E. faecalis (1 μg/ml) for 1 h in the presence or absence of calpain-2 inhibitor (20 μg/ml). Supernatants were evaluated for a panel of cytokines including IFNγ, TNFα, IL-6, and MCP-1, IL-10, and IL-12. Real-time PCR was performed on total RNA extracted from colon tissues to access levels of cytokines. Media was collected from wells and cytokines assessed by CBA kit (BD Biosciences). For IκB blotting cells were lysed and SDS-PAGE was performed. Membranes were stained with anti-IκB (Cell Signalling) and anti-βactin (Santa Cruz). For NfκB blotting an NFκB Activation Kit (Five Photon) was used to isolate nuclear fractions. These fractions were transferred using SDS-PAGE. The membranes were stained with anti-NFκB (Santa Cruz) or anti-TATA (Abcam). Data are mean±SE (n=3) and represent results from three independent experiments. *p<0.05; one way ANOVA followed by Tukey post-test. […] Importantly, those cytokines most affected by the calpain-2 are regulated by NFκB.

[3] = system: Bone marrow derived macrophages (BMDM); test: cytokine production by activated bone marrow derived macrophages (CBA); assay type: cell-based, mouse; settings: 20 μg/ml; TNFα primed, E. faecalis activated BMDM
Protocol: Bone marrow derived macrophages (BMDM) were prepared as previously described by methods known to those skilled in the art. On day 5 of culture, 2×10^6 BMDM were seeded in 6-well plates and the following day were primed for 18 h with TNFα (20 ng/mL), followed by 1 h stimulation with E. faecalis (1 μg/mL; ATCC). Stimulation with E. faecalis was conducted in the presence of the zLLY-CH2F calpain-2 inhibitor (20 μg/mL) or DMSO as a control. Media was removed from treated BMDM, centrifuged at 300×g for 5 min and supernatent analyzed using the Cytometric Bead Array Mouse Inflammation Kit (BD Biosciences, San Jose, Calif.). Cytokine data were analyzed using Flowjo software (Ashland, Oreg.) and GraphPad Prism version 4.0 (GraphPad, La Jolla, Calif.). Cell pellets were lysed and analyzed for IκB and NFκB by Western blot as previously described (Miyazaki, T. et al. Journal of Atherosclerosis and Thrombosis 20, 228-237, 2013). In other experiments, mouse CT-26.WT and human HT-29 colon cancer cells were plated in 96-well plates at 10^3 cells/well with 20 μg/mL inhibitor or DMSO, followed by analyses for IκB and NFκB by Western blot as described above for BMDM. For proliferation assays, fresh media with 20 μg/mL inhibitor or DMSO were added every 2 d. Each day 4 wells were quantified using Celltiter MTS reagent (Promega) and the resulting signal was used to generate a proliferation curve. Calpain activity was measured using a Calpain activity assay kit (BioVision, Inc., Milpitas, Calif.) as previously described. Colons were harvested on day 4 and calpain activity measured. Enzyme-linked immunosorbant assay (ELISA) analyses of cecum hemoglobin has been previously described (Miyazaki, T. et al. Journal of Atherosclerosis and Thrombosis 20, 228-237, 2013).
as §1

[4] = biological target: T1, μ-calpain (Homo sapiens, UniProt P07384); settings: off-target; cited from earlier work
T1 sequence (P07384 1-714): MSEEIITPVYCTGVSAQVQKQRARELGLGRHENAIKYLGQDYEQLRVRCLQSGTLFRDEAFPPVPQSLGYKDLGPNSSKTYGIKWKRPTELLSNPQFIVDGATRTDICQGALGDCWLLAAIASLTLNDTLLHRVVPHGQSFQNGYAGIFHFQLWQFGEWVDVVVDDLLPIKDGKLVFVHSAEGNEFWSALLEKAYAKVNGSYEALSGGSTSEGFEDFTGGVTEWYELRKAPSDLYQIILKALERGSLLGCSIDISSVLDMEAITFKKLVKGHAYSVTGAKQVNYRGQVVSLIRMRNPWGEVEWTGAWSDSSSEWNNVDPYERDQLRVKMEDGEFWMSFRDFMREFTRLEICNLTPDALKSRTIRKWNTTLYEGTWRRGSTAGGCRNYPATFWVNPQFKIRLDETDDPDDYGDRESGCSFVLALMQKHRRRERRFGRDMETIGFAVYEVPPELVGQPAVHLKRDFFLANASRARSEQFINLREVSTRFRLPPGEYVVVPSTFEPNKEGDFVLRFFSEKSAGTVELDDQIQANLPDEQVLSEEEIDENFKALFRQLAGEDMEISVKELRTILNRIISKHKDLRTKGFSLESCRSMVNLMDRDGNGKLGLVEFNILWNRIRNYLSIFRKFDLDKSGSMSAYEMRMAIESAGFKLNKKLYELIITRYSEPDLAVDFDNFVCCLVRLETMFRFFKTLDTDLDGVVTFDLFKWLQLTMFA

[5] = system: IκB / NFκB in CT-26 WT cells; test: IκB and nuclear NFκB western blot, CT-26.WT; assay type: cell-based, mouse; settings: vs DMSO

With `CC(C)C[C@H](NC(=O)OCc1ccccc1)C(=O)N[C@@H](CC(C)C)C(=O)N[C@@H](Cc1ccc(O)cc1)C(=O)CF` [zLLY-CH2F, Z-LLY-CH2F] (Cbz-Leu-Leu-Tyr-CH2F) the FAK cleavage [1] was “not apparent”, the “phosphorylation of Akt” value [1] was “inhibited” and the “IFNγ mRNA level in colon” value [2] was “not significantly different”. For the same compound, the “IL-6 mRNA level in colon” value [2] was “lowered”, the “MCP-1 mRNA level in colon” value [2] was “lowered” and the “TNFα mRNA level in colon” value [2] was “lowered”. The “production of IFNγ” value [3] was “significant decrease”, the “production of IL-6” value [3] was “significant decrease” and the “production of IL-10” value [3] was “not significantly affected”. For the same compound, the “production of IL-12” value [3] was “not significantly affected”, the “production of MCP-1” value [3] was “significant decrease” and the “production of TNFα” value [3] was “significant decrease”. The “inhibition of μ-calpain” value [4] was “not known to inhibit”, the IκB degradation [5] was “reduced” and the NFκB nuclear localization [5] was “reduced”.
